Measured values published in BigSolDB 2.1.

Compound: CC(C)C(=O)Nc1ccc([N+](=O)[O-])c(C(F)(F)F)c1
- solubility (mole fraction) (in 2-ethoxyethanol, 278.15 K): 0.132
- solubility (mole fraction) (in 2-ethoxyethanol, 283.15 K): 0.142
- solubility (mole fraction) (in 2-ethoxyethanol, 288.15 K): 0.153
- solubility (mole fraction) (in 2-ethoxyethanol, 293.15 K): 0.164
- solubility (mole fraction) (in 2-ethoxyethanol, 298.15 K): 0.176
- solubility (mole fraction) (in 2-ethoxyethanol, 303.15 K): 0.19
- solubility (mole fraction) (in 2-ethoxyethanol, 308.15 K): 0.204
- solubility (mole fraction) (in 2-ethoxyethanol, 313.15 K): 0.22
- solubility (mole fraction) (in 2-ethoxyethanol, 318.15 K): 0.237
- solubility (mole fraction) (in 2-ethoxyethanol, 323.15 K): 0.258
- solubility (mole fraction) (in 2-methoxyethanol, 278.15 K): 0.121
- solubility (mole fraction) (in 2-methoxyethanol, 283.15 K): 0.13
- solubility (mole fraction) (in 2-methoxyethanol, 288.15 K): 0.142
- solubility (mole fraction) (in 2-methoxyethanol, 293.15 K): 0.153
- solubility (mole fraction) (in 2-methoxyethanol, 298.15 K): 0.166
- solubility (mole fraction) (in 2-methoxyethanol, 303.15 K): 0.18
- solubility (mole fraction) (in 2-methoxyethanol, 308.15 K): 0.195
- solubility (mole fraction) (in 2-methoxyethanol, 313.15 K): 0.212
- solubility (mole fraction) (in 2-methoxyethanol, 318.15 K): 0.229
- solubility (mole fraction) (in 2-methoxyethanol, 323.15 K): 0.25
- solubility (mole fraction) (in DMF, 278.15 K): 0.382
- solubility (mole fraction) (in DMF, 283.15 K): 0.391
- solubility (mole fraction) (in DMF, 288.15 K): 0.401
- solubility (mole fraction) (in DMF, 293.15 K): 0.41
- solubility (mole fraction) (in DMF, 298.15 K): 0.421
- solubility (mole fraction) (in DMF, 303.15 K): 0.433
- solubility (mole fraction) (in DMF, 308.15 K): 0.447
- solubility (mole fraction) (in DMF, 313.15 K): 0.462
- solubility (mole fraction) (in DMF, 318.15 K): 0.476
- solubility (mole fraction) (in DMF, 323.15 K): 0.494
- solubility (mole fraction) (in DMSO, 293.15 K): 0.433
- solubility (mole fraction) (in DMSO, 298.15 K): 0.443
- solubility (mole fraction) (in DMSO, 303.15 K): 0.455
- solubility (mole fraction) (in DMSO, 308.15 K): 0.469
- solubility (mole fraction) (in DMSO, 313.15 K): 0.481
- solubility (mole fraction) (in DMSO, 318.15 K): 0.496
- solubility (mole fraction) (in DMSO, 323.15 K): 0.512
- solubility (mole fraction) (in acetone, 278.15 K): 0.162
- solubility (mole fraction) (in acetone, 283.15 K): 0.173
- solubility (mole fraction) (in acetone, 288.15 K): 0.185
- solubility (mole fraction) (in acetone, 293.15 K): 0.196
- solubility (mole fraction) (in acetone, 298.15 K): 0.209
- solubility (mole fraction) (in acetone, 303.15 K): 0.223
- solubility (mole fraction) (in acetone, 308.15 K): 0.238
- solubility (mole fraction) (in acetone, 313.15 K): 0.255
- solubility (mole fraction) (in acetone, 318.15 K): 0.273
- solubility (mole fraction) (in acetone, 323.15 K): 0.293
- solubility (mole fraction) (in dichloromethane, 278.15 K): 0.00732
- solubility (mole fraction) (in dichloromethane, 283.15 K): 0.00924
- solubility (mole fraction) (in dichloromethane, 288.15 K): 0.0117
- solubility (mole fraction) (in dichloromethane, 293.15 K): 0.0143
- solubility (mole fraction) (in dichloromethane, 298.15 K): 0.0182
- solubility (mole fraction) (in dichloromethane, 303.15 K): 0.0223
- solubility (mole fraction) (in dichloromethane, 308.15 K): 0.0273
- solubility (mole fraction) (in ethanol, 278.15 K): 0.0336
- solubility (mole fraction) (in ethanol, 283.15 K): 0.0406
- solubility (mole fraction) (in ethanol, 288.15 K): 0.0503
- solubility (mole fraction) (in ethanol, 293.15 K): 0.0586
- solubility (mole fraction) (in ethanol, 298.15 K): 0.0699
- solubility (mole fraction) (in ethanol, 303.15 K): 0.083
- solubility (mole fraction) (in ethanol, 308.15 K): 0.0979
- solubility (mole fraction) (in ethanol, 313.15 K): 0.116
- solubility (mole fraction) (in ethanol, 318.15 K): 0.135
- solubility (mole fraction) (in ethanol, 323.15 K): 0.158
- solubility (mole fraction) (in ethyl acetate, 278.15 K): 0.0998
- solubility (mole fraction) (in ethyl acetate, 283.15 K): 0.109
- solubility (mole fraction) (in ethyl acetate, 288.15 K): 0.119
- solubility (mole fraction) (in ethyl acetate, 293.15 K): 0.131
- solubility (mole fraction) (in ethyl acetate, 298.15 K): 0.143
- solubility (mole fraction) (in ethyl acetate, 303.15 K): 0.156
- solubility (mole fraction) (in ethyl acetate, 308.15 K): 0.17
- solubility (mole fraction) (in ethyl acetate, 313.15 K): 0.187
- solubility (mole fraction) (in ethyl acetate, 318.15 K): 0.205
- solubility (mole fraction) (in ethyl acetate, 323.15 K): 0.225
- solubility (mole fraction) (in ethylene glycol, 278.15 K): 0.00089
- solubility (mole fraction) (in ethylene glycol, 283.15 K): 0.00116
- solubility (mole fraction) (in ethylene glycol, 288.15 K): 0.0015
- solubility (mole fraction) (in ethylene glycol, 293.15 K): 0.00195
- solubility (mole fraction) (in ethylene glycol, 298.15 K): 0.00241
- solubility (mole fraction) (in ethylene glycol, 303.15 K): 0.00308
- solubility (mole fraction) (in ethylene glycol, 308.15 K): 0.0039
- solubility (mole fraction) (in ethylene glycol, 313.15 K): 0.00491
- solubility (mole fraction) (in ethylene glycol, 318.15 K): 0.0061
- solubility (mole fraction) (in ethylene glycol, 323.15 K): 0.00758
- solubility (mole fraction) (in methanol, 278.15 K): 0.0296
- solubility (mole fraction) (in methanol, 283.15 K): 0.0362
- solubility (mole fraction) (in methanol, 288.15 K): 0.0446
- solubility (mole fraction) (in methanol, 293.15 K): 0.0532
- solubility (mole fraction) (in methanol, 298.15 K): 0.065
- solubility (mole fraction) (in methanol, 303.15 K): 0.078
- solubility (mole fraction) (in methanol, 308.15 K): 0.0933
- solubility (mole fraction) (in methanol, 313.15 K): 0.11
- solubility (mole fraction) (in methanol, 318.15 K): 0.131
- solubility (mole fraction) (in methanol, 323.15 K): 0.153
- solubility (mole fraction) (in methyl acetate, 278.15 K): 0.0945
- solubility (mole fraction) (in methyl acetate, 283.15 K): 0.103
- solubility (mole fraction) (in methyl acetate, 288.15 K): 0.113
- solubility (mole fraction) (in methyl acetate, 293.15 K): 0.123
- solubility (mole fraction) (in methyl acetate, 298.15 K): 0.135
- solubility (mole fraction) (in methyl acetate, 303.15 K): 0.144
- solubility (mole fraction) (in methyl acetate, 308.15 K): 0.16
- solubility (mole fraction) (in methyl acetate, 313.15 K): 0.175
- solubility (mole fraction) (in methyl acetate, 318.15 K): 0.192
- solubility (mole fraction) (in methyl acetate, 323.15 K): 0.21
